In patent US8802597B2, “Herbicidal pyrimidines” (E I du Pont de Nemours and Company, priority 2003, dated 2014):

Assays:
Experiment in all cases: Test A pre/postemergence
Format in all cases: in vivo
[1] = system: morningglory (Ipomoea spp.)
Procedure, shortened: (§1)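 After planting in loam and sand, species received test chemical as preemergence soil spray; postemergence spray went on 2–10 cm plants at 1–2 leaves at the same time. Evaluation: visual injury, ~10 d, 0 no effect to 100 complete control.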

[2] = system: velvetleaf (Abutilon theophrasti)
Procedure, shortened: as §1

[3] = system: crabgrass (Digitaria sanguinalis)
Procedure, shortened: as §1

[4] = system: redroot pigweed (Amaranthus retroflexus)
Procedure, shortened: as §1

[5] = Postemergence, 125 g ai/ha, 0 to 100 scale (0 no effect, 100 complete control)
[6] = Postemergence, 500 g ai/ha, 0 to 100 scale (0 no effect, 100 complete control)
[7] = Preemergence, 125 g ai/ha, 0 to 100 scale where 0 is no effect and 100 is complete control, approximately ten days
[8] = Preemergence, 500 g ai/ha, 0 to 100 scale where 0 is no effect and 100 is complete control, approximately ten days

Structure (SMILES): COC(=O)c1nc(-c2ccc(Cl)cc2)nc(N)c1Br [Compound 83]
- Plant response rating, Morningglory [1, 5]: 55
- Plant response rating, Morningglory [1, 6]: 75
- Plant response rating, Morningglory [1, 7]: 0
- Plant response rating, Morningglory [1, 8]: 10
- Plant response rating, Velvetleaf [2, 5]: 90
- Plant response rating, Velvetleaf [2, 6]: 90
- Plant response rating, Velvetleaf [2, 7]: 15
- Plant response rating, Velvetleaf [2, 8]: 30
- Plant response rating, Crabgrass [3, 5]: 0
- Plant response rating, Crabgrass [3, 6]: 10
- Plant response rating, Crabgrass [3, 7]: 0
- Plant response rating, Crabgrass [3, 8]: 5
- Plant response rating, Pigweed [4, 5]: 70
- Plant response rating, Pigweed [4, 6]: 85
- Plant response rating, Pigweed [4, 7]: 20
- Plant response rating, Pigweed [4, 8]: 50

Structure (SMILES): CCOC(=O)c1nc(-c2ccc(I)cc2)nc(N)c1Cl [Compound 133]
- Plant response rating, Morningglory [1, 5]: 70
- Plant response rating, Morningglory [1, 6]: 85
- Plant response rating, Morningglory [1, 7]: 0
- Plant response rating, Morningglory [1, 8]: 35
- Plant response rating, Velvetleaf [2, 5]: 80
- Plant response rating, Velvetleaf [2, 6]: 85
- Plant response rating, Velvetleaf [2, 7]: 10
- Plant response rating, Velvetleaf [2, 8]: 30
- Plant response rating, Crabgrass [3, 5]: 30
- Plant response rating, Crabgrass [3, 6]: 55
- Plant response rating, Crabgrass [3, 7]: 0
- Plant response rating, Crabgrass [3, 8]: 45
- Plant response rating, Pigweed [4, 5]: 80
- Plant response rating, Pigweed [4, 6]: 90
- Plant response rating, Pigweed [4, 7]: 10
- Plant response rating, Pigweed [4, 8]: 65

Structure (SMILES): Nc1nc(-c2ccc(Cl)cc2)nc(C(=O)O)c1Br [Compound 88]
- Plant response rating, Morningglory [1, 5]: 60
- Plant response rating, Morningglory [1, 6]: 85
- Plant response rating, Morningglory [1, 7]: 10
- Plant response rating, Morningglory [1, 8]: 90
- Plant response rating, Velvetleaf [2, 5]: 90
- Plant response rating, Velvetleaf [2, 6]: 95
- Plant response rating, Velvetleaf [2, 7]: 10
- Plant response rating, Velvetleaf [2, 8]: 70
- Plant response rating, Crabgrass [3, 5]: 60
- Plant response rating, Crabgrass [3, 6]: 85
- Plant response rating, Crabgrass [3, 7]: 35
- Plant response rating, Crabgrass [3, 8]: 85
- Plant response rating, Pigweed [4, 5]: 90
- Plant response rating, Pigweed [4, 6]: 95
- Plant response rating, Pigweed [4, 7]: 80
- Plant response rating, Pigweed [4, 8]: 100

Structure (SMILES): CCCCOC(=O)c1nc(C2CC2)nc(N)c1Cl [Compound 76]
- Plant response rating, Morningglory [1, 5]: 90
- Plant response rating, Morningglory [1, 6]: 95
- Plant response rating, Morningglory [1, 7]: 100
- Plant response rating, Morningglory [1, 8]: 100
- Plant response rating, Velvetleaf [2, 5]: 80
- Plant response rating, Velvetleaf [2, 6]: 100
- Plant response rating, Velvetleaf [2, 7]: 90
- Plant response rating, Velvetleaf [2, 8]: 100
- Plant response rating, Crabgrass [3, 5]: 45
- Plant response rating, Crabgrass [3, 6]: 70
- Plant response rating, Crabgrass [3, 7]: 30
- Plant response rating, Crabgrass [3, 8]: 75
- Plant response rating, Pigweed [4, 5]: 85
- Plant response rating, Pigweed [4, 6]: 95
- Plant response rating, Pigweed [4, 7]: 80
- Plant response rating, Pigweed [4, 8]: 90

Structure (SMILES): Cc1ccc(-c2nc(N)c(Cl)c(C(=O)O)n2)cc1 [Compound 91]
- Plant response rating, Morningglory [1, 5]: 5
- Plant response rating, Morningglory [1, 6]: 30
- Plant response rating, Morningglory [1, 7]: 5
- Plant response rating, Morningglory [1, 8]: 50
- Plant response rating, Velvetleaf [2, 5]: 75
- Plant response rating, Velvetleaf [2, 6]: 95
- Plant response rating, Velvetleaf [2, 7]: 80
- Plant response rating, Velvetleaf [2, 8]: 100
- Plant response rating, Crabgrass [3, 5]: 5
- Plant response rating, Crabgrass [3, 6]: 15
- Plant response rating, Crabgrass [3, 7]: 25
- Plant response rating, Crabgrass [3, 8]: 75
- Plant response rating, Pigweed [4, 5]: 55
- Plant response rating, Pigweed [4, 6]: 100
- Plant response rating, Pigweed [4, 7]: 100
- Plant response rating, Pigweed [4, 8]: 100
